Data taken from ChEMBL document CHEMBL5236554 (J Med Chem, 2021).
Blank lines part the entries; values can stand above or below the compound they belong to. Activity calls are given as the source filed them. The rule behind the calls is not given here. Square brackets hold non-standard residues; d marks the D form. Peptide text beside a SMILES is read from it. * marks the point of attachment. Boc = CC(C)(C)OC(=O)*

What was measured:
[1] = biological target: Neurolysin, mitochondrial (Rattus norvegicus, UniProt P42676); assay: Activation of recombinant rat Neurolysin using QFS as substrate incubated for 10 mins
[2] = biological target: Angiotensin-converting enzyme 2 (Homo sapiens) (UniProt Q9BYF1); assay: Inhibition of recombinant human ACE2 catalytic activity at 300 uM using Mca-Ala-Pro-Lys-(Dnp)-OH as substrate
[3] = biological target: Thimet oligopeptidase (Homo sapiens) (UniProt P52888); assay: Inhibition of recombinant human THOP catalytic activity using Mca-Pro-Leu-Gly-Pro-D-Lys(DNP)-OH as substrate
[4] = Metabolic stability in mouse brain homogenate assessed as half life measured upto 240 mins by LC-MS/MS analysis; format: ADME, tissue-based; details: 4 h
[5] = Permeability coefficient across apical to basolateral side in mouse BEND3 cells co-cultured with mouse primary astrocytes incubated for 120 mins by LC-MS/MS analysis; format: ADME, cell-based; details: bend3, 2 h
[6] = biological target: Neprilysin (Homo sapiens) (UniProt P08473); assay: Inhibition of recombinant human NEP catalytic activity using Mca-Arg-Pro-Pro-Gly-Phe-Ser-Ala-Phe-Lys(Dnp)-OH as substrate
[7] = Metabolic stability in mouse plasma assessed as half life measured upto 240 mins by LC-MS/MS analysis; format: ADME, cell-free
[8] = biological target: Angiotensin-converting enzyme (Homo sapiens) (UniProt P12821); assay: Inhibition of recombinant human ACE catalytic activity measured up to 150 uM
Chain of Angiotensin-converting enzyme (Homo sapiens) (P12821 whole entry): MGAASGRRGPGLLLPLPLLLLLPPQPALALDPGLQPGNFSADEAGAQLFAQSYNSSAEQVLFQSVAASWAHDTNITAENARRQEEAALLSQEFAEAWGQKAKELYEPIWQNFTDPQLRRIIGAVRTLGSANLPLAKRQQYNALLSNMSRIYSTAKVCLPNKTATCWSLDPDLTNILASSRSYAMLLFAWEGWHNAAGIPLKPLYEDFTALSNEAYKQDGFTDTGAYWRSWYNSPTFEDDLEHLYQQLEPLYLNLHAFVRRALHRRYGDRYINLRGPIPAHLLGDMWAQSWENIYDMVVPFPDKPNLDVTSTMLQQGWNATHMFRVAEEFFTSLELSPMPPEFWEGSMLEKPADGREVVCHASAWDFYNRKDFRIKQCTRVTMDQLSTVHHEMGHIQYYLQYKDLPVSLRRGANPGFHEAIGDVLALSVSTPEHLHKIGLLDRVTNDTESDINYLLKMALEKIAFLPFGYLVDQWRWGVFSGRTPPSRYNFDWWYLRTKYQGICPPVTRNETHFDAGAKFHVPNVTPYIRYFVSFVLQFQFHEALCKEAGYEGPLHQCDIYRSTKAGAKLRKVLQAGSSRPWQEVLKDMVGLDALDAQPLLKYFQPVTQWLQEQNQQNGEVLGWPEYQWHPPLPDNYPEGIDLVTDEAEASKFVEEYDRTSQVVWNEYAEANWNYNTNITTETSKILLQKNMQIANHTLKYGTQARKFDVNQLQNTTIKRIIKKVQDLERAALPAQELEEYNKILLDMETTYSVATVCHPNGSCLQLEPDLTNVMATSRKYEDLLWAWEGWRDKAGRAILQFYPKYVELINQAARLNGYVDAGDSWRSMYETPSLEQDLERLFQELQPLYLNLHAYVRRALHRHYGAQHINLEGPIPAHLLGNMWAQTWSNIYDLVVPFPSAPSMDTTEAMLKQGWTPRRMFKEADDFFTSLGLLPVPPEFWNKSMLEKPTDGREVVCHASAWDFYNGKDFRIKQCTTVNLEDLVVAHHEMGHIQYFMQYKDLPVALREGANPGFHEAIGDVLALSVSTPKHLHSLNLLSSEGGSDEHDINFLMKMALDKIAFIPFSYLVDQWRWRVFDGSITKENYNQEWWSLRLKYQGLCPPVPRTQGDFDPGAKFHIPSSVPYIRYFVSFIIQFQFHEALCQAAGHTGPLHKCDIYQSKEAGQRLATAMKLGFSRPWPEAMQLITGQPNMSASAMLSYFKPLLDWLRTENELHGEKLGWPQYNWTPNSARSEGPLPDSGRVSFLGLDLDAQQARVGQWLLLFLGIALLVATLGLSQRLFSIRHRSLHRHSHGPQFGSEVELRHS

Chain of Neurolysin, mitochondrial (P42676 whole entry): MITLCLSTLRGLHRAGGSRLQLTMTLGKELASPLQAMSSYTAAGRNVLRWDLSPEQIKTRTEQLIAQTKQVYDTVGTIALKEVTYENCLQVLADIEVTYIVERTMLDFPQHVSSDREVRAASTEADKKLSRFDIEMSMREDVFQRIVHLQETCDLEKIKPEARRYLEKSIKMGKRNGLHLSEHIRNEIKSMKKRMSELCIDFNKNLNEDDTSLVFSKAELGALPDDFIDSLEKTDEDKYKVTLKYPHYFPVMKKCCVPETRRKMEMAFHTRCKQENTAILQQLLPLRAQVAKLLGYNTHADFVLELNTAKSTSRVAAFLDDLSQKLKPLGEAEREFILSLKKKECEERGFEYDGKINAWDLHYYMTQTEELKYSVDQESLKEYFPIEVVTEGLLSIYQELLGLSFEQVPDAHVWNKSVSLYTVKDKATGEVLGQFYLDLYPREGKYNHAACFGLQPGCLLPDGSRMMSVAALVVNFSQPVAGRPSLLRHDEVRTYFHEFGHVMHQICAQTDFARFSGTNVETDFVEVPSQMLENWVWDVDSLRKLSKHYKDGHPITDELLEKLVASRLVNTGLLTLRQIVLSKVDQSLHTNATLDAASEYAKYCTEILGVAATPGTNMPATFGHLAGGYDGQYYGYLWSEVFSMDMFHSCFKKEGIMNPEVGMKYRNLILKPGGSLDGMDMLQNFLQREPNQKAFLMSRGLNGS
Chain of Neprilysin (Homo sapiens) (P08473 whole entry): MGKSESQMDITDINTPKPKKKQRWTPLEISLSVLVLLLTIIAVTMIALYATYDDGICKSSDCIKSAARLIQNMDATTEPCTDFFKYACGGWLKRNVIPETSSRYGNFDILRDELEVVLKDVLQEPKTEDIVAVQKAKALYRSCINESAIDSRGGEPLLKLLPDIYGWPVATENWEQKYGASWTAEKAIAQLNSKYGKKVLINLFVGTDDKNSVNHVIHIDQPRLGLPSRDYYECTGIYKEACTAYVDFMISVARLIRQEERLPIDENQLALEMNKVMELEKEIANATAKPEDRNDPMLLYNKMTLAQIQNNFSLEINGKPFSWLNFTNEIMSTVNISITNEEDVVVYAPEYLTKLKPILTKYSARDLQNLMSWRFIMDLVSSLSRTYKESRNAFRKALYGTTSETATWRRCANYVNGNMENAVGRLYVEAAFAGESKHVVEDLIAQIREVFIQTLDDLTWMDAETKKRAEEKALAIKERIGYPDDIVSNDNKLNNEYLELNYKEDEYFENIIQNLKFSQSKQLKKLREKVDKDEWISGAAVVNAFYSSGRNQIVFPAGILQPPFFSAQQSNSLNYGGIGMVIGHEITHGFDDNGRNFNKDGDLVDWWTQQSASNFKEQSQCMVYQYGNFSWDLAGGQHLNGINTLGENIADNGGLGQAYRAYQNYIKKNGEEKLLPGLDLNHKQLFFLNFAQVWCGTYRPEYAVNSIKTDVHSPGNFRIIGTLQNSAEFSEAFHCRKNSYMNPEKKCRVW
Chain of Angiotensin-converting enzyme 2 (Homo sapiens) (Q9BYF1 18-805 limits assumed): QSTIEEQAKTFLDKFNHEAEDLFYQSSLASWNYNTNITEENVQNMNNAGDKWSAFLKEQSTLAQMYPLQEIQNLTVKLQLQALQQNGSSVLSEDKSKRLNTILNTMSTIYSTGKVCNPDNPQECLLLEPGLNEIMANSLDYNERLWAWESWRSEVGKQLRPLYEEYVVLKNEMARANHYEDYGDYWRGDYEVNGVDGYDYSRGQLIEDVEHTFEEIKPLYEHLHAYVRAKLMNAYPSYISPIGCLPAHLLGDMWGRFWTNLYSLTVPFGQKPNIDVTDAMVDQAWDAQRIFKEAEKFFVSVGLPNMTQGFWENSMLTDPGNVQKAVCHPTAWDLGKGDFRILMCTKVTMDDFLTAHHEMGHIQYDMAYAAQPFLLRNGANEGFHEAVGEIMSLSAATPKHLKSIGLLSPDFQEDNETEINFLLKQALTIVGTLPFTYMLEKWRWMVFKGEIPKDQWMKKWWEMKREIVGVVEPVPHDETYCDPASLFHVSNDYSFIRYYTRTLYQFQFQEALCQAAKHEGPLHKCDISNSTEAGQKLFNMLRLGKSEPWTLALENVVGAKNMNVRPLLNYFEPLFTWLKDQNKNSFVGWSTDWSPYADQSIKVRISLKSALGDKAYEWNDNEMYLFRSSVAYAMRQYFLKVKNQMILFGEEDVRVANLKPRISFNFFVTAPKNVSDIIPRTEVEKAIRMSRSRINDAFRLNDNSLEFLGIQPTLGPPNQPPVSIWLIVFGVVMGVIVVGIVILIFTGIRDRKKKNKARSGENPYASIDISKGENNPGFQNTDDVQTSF
Chain of Thimet oligopeptidase (Homo sapiens) (P52888 whole entry): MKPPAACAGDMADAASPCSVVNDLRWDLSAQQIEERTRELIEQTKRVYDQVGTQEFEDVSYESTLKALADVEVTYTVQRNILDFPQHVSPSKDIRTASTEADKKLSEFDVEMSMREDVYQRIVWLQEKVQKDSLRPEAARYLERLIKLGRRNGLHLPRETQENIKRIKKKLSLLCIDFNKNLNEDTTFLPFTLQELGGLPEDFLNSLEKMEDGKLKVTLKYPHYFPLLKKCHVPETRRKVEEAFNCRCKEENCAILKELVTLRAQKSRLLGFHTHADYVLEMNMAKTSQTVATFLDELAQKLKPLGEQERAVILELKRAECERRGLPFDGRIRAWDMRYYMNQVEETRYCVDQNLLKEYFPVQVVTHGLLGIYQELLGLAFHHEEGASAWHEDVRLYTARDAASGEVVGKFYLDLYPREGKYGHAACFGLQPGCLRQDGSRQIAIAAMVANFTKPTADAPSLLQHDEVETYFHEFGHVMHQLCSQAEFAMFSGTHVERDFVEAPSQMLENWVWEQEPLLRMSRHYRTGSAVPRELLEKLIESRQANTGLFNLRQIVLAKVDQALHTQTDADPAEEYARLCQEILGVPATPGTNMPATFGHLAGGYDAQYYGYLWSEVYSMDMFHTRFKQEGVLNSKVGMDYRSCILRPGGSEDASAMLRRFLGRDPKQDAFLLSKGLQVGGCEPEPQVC

EC50 [1]: Not Active
Compound: N[C@@H](Cc1ccc(O)cc1)C(=O)N[C@H](Cc1c[nH]cn1)C(=O)O

Compound: N[C@@H](Cc1c[nH]cn1)C(=O)NCCc1ccc(F)cc1
EC50 ([1]; read-out: EC50): 11.6 µM

Compound: O=C(CCc1c[nH]cn1)NCCc1cc2ccccc2[nH]1
EC50 [1]: Not Active

Compound: N[C@@H](Cc1c[nH]cn1)C(=O)N[C@@H](Cc1ccccc1)C(=O)O (H-His-Phe-OH)
EC50 ([1]; read-out: EC50): 74.5 µM

Compound: NC(Cc1c[nH]cn1)C(=O)NCc1cccc2cccnc12 (racemic)
EC50 ([1]; read-out: EC50): 5.8 µM

EC50 [1]: Not Active
Compound: CC(C)(C)OC(=O)N[C@@H](Cc1c[nH]cn1)C(=O)NCCc1c[nH]c2ccccc12

Compound: N[C@@H](Cc1c[nH]cn1)C(=O)NCc1cccc2ccccc12
inhibition [2]: inactive
inhibition [3]: inactive
t1/2 [4]: 80.3 min
Kp [5]: 1.09 10^-3cm/min
inhibition [6]: inactive
half-life [7]: > 1000 min
inhibition [8]: inactive

EC50 [1]: Not Active
Compound: CC(C)(C)OC(=O)N[C@@H](Cc1ccc(O)cc1)C(=O)N[C@H](Cc1ccccc1)C(=O)O (Boc-Tyr-[dF]-OH)

t1/2 [4]: 1.03 min
Kp [5]: 0.21 10^-3cm/min
t1/2 ([7]; 4 h): 34.19 min
Compound: N[C@@H](Cc1c[nH]cn1)C(=O)N[C@@H](Cc1ccc(O)cc1)C(=O)O (H-His-Tyr-OH)
